Blank lines part the entries; values can stand above or below the molecule they belong to. *1 amine or outer side, *2 acyl side, *3 side chain or, on linkers, in order; H or OH if unused. Where a SMILES comes first, the peptide text is derived from it. Bridges are numbered along the chain shown (N, C = ends). [ ]: non-standard residue; d: D form. The star is where a group is joined. ξ: configuration not given here. MeDapCOpipzaa = 3-(4-(carboxymethyl)piperazine-1-carboxamido)-2-(methylamino)propanoic acid, CN([C@@H](CNC(=O)N1CCN(CC(=O)[*:3])CC1)C(=O)[*:2])[*:1]; F4aao = (S)-2-amino-3-(4-(carboxymethoxy)phenyl)propanoic acid, O=C([C@H](Cc1ccc(OCC(=O)[*:3])cc1)N[*:1])[*:2]; MeHseMe = 4-methoxy-2-(methylamino)butanoic acid, COCC[C@@H](C(=O)[*:2])N(C)[*:1]; Phe(4-(1-Me-pyrazol-4-yl)) = Cn1cc(-c2ccc(C[C@H](N)C(=O)O)cc2)cn1; Biotin‑PEG12c = biotin-PEG12c group on the lysine side chain; TMe = O-methyl threonine, CO[C@H](C)[C@H](N[*:1])C(=O)[*:2]; NMeAla(isoquinolin-7-yl) = CN[C@@H](Cc1ccc2ccncc2c1)C(=O)O; 3Pal(6-Ph) = N[C@@H](Cc1ccc(-c2ccccc2)nc1)C(=O)O; Biotin = O=C1N[C@H]2[C@H](CS[C@H]2CCCCC(=O)*)N1; PEG10 = NCCOCCOCCOCCOCCOCCOCCOCCOCCOCCOCCC(=O)O; Phe(4-COOH) = N[C@@H](Cc1ccc(C(=O)O)cc1)C(=O)O; NMe2Nal = CN[C@@H](Cc1ccc2ccccc2c1)C(=O)O; AEF = NCCOc1ccc(C[C@H](N)C(=O)O)cc1; NMeI = CC[C@H](C)[C@H](NC)C(=O)O; NMeQ = CN[C@@H](CCC(N)=O)C(=O)O; NMeK = CN[C@@H](CCCCN)C(=O)O; NMeC = CN[C@@H](CS)C(=O)O; ξNMeC = CNC(CS)C(=O)O
Key:
[1] = target: Human Glypican3-Fc (Homo sapiens, UniProt P51654); test: SPR binding to human Glypican3-Fc captured on Protein A chip, Method B-3 (5 concentrations); conditions: SPR method B-3
Protocol: (§1) A Protein A sensor chip (Cytiva) was inserted into a Biacore T200 (Cytiva), priming was performed three times with a running buffer: HBS-P+, pH 7.4 (Cytiva), and equilibration was carried out at a flow rate of 30 μL/min. Glypican3-Fc was allowed to react for 60 seconds at a flow rate of 10 μL/min. After capturing human Glypican3-Fc, a peptide solution prepared to 10 mM in DMSO solution was diluted with a running buffer to a final concentration of 10 μM. […] Using the above samples, peptide kinetics for Glypican3 was obtained by SPR measurement. Kinetics evaluation of Glypican3 was performed by SPR measurements at a flow rate of 10 μL/min, setting the association time to 120 seconds and the disassociation time to 600 seconds.
(§2) The obtained data by Method B-1, Method B-2, Method B-3, and Method B-4 were analyzed by follow. Single Cycle Kinetics was used as the kinetics evaluation model, and curve fitting was performed using Biacore T200 Evaluation Software Version 3.0 (Cytiva).

[2] = system: Huh-7 cells (glypican 3 expressed on the cell surface); test: Flow cytometry, biotinylated peptides followed by SAPE, Huh-7; format: cell-based, human; conditions: biotinylated peptide at 100 nM followed by SAPE (1:250), on ice; compared with SK-Hep1 negative control; FIG. 3
Protocol: (§3) Macrocyclic peptide-conjugates in this invention were tested in cells expressing glypican 3 and analyzed by flow cytometry.
(§4) HepG2 (human hepatocellular carcinoma) and SK-HEP-1 (human hepatic adenocarcinoma) cell lines were purchased from the American Type Culture Collection (ATCC; Manassas, VA). Huh-7 (human hepatoblastoma) cell line was purchased from the Japanese Collection of Research Bioresources Cell Bank (JCRB Cell Bank, Osaka, Japan). HepG2 and SK-HEP-1 were grown in EMEM (FUJIFILM Wako Pure Chemical Corporation, 055-08975) with 10% fetal bovine serum (FBS; Thermo Fisher Scientific, 10270106) and 0.1% gentamicin (NACALAI TESQUE, 11980-14). Huh-7 was grown in DMEM (Thermo Fisher Scientific, 10567014) with 10% FBS and 0.1% gentamicin.
(§5) HepG2, SK-HEP-1 and Huh-7 cells were collected from the culture dish and stained with biotinylated peptides at 100 nM followed by Streptavidin, R-Phycoerythrin Conjugate (SAPE; Thermo Fisher Scientific, S866) (1:250). Cells were washed with phosphate-buffered saline (PBS; FUJIFILM Wako Pure Chemical Corporation, 043-29791) containing 0.5% FBS after addition of peptides or SAPE. All staining procedures were performed on ice. Samples were measured using CytoFLEX S (Beckman Coulter) and CytExpert ver2.4 software. All data were analyzed using FlowJo™ (BD Bioscience). […]

[3] = system: HepG2 cells (glypican 3 expressed on the cell surface); test: Flow cytometry, biotinylated peptides followed by SAPE, HepG2; format: cell-based, human; conditions: biotinylated peptide at 100 nM followed by SAPE (1:250), on ice; compared with SK-Hep1 negative control; FIG. 2
Protocol: as §3, §4, §5

[4] = target: T1, human Glypican3 (Homo sapiens, UniProt P51654); test: SPR binding to immobilized human Glypican3, Method B-1 (CM3 chip, amine coupling); conditions: SPR method B-1
T1 construct: purchased R&D systems 2119-GP
T1 sequence (P51654 25-554): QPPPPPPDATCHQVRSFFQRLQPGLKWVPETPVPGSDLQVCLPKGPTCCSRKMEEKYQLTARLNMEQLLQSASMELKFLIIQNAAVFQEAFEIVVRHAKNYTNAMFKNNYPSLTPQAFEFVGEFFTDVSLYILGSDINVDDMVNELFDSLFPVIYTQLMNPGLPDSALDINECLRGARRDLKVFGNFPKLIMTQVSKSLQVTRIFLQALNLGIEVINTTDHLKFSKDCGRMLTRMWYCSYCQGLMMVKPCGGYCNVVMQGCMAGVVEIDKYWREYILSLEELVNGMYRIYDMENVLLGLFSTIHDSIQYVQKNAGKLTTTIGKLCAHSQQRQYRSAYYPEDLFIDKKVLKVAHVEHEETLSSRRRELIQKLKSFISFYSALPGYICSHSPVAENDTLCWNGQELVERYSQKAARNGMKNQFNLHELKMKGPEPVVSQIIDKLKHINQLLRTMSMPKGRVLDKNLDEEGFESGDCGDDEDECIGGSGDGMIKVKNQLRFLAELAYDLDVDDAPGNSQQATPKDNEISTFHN
Protocol: Macrocyclic peptides in this invention were tested for binding to Glypican-3 protein by SPR.
A CM3 sensor chip (Cytiva) was inserted into a Biacore T200 (Cytiva), primed three times with a running buffer: HBS-P+, pH 7.4 (Cytiva), and equilibrated at a flow rate of 30 μL/min. Ligand immobilization was performed at a flow rate of 10 μL/min. 50 μL each of 60 mM EDC solution (Cytiva) and 650 mM NHS solution (Cytiva) were mixed, and then reacted at a flow rate of 10 μL/min for 420 seconds. 150 μL of 0.2 μM human Glypican3 (R&D systems, catalog number: 2119-GP) solution which was prepared by diluting with 10 mM acetic acid solution (pH 5.0), was reacted at a flow rate of 10 μL/min for 420 seconds, and Glypican3 was immobilized on the CM3 sensor chip. After immobilization, 1.0 M ethanolamine aqueous solution (Cytiva) was allowed to react for 420 seconds at a flow rate of 10 μL/min for capping. A peptide lysate prepared to 10 mM in DMSO solution was diluted with running buffer to a final concentration of 10 μM peptide lysate. After that, 5 serial dilution series (100 nM, 50 nM, 25 nM, 10 nM, 5 nM) of peptide solutions were prepared. Using the above samples, peptide kinetics for Glypican3 was obtained by SPR measurement. […]
The obtained data by Method B-1, Method B-2, Method B-3, and Method B-4 were analyzed by follow. […]

[5] = target: Human Glypican3-Fc (ACRO Biosystems, GP3-H5258) (human) (UniProt P51654); test: SPR Biacore T200, Method B-3: Glypican3-Fc captured on Protein A chip, single cycle kinetics
Human Glypican3-Fc (ACRO Biosystems, GP3-H5258) (human), sequence (P51654 25-559 limits assumed): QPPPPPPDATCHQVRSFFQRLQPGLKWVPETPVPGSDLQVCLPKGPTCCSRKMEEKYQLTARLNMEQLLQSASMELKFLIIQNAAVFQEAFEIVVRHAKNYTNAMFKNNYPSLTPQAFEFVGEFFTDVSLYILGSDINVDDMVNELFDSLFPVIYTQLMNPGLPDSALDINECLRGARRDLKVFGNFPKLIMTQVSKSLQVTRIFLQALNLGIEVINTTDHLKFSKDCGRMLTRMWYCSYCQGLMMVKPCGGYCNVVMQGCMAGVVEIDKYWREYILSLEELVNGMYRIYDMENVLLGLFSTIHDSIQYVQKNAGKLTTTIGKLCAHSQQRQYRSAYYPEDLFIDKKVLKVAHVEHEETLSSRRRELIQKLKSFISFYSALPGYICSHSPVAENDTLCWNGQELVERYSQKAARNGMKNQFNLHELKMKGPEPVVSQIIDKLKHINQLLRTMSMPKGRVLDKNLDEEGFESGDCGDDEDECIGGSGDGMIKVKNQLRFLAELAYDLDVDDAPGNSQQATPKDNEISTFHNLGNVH

[6] = target: T2, Human Glypican3-Fc (ACRO Biosystems, GP3-H5258) (human, UniProt P51654 25-559); test: as above
T2 construct: Bought Fc fusion, captured by anti-human IgG (Fc) antibody (Method B-2) or on a Protein A chip (Methods B-3, B-4); Supplier and catalogue number are printed only in Method B-2; B-3 and B-4 say only Glypican3-Fc / human Glypican3-Fc; not shown: Fc part of the bought fusion protein
T2 sequence (P51654 25-559 limits assumed): as above
Protocol: as §1, §2

Kd [5]: 1 nM
Molecule: {CH2CO}-[MeDapCOpipzaa][MeHseMe]D[MeDapCOpipzaa][Phe(4-COOH)][TMe]I[AEF][NMeAla(isoquinolin-7-yl)]G[3Pal(6-Ph)][NMeC]-NH2 (thioether N-12) [macrocyclic peptide of SEQ ID NO: 54]

Kd [6]: 1.04 nM
Molecule: {CH2CO}-[NMeK](Biotin‑PEG12c)[NMeI]D[NMeQ][Phe(4-COOH)]II[F4aao][NMeAla(isoquinolin-7-yl)]G[3Pal(6-Ph)][NMeC]-NH2 (thioether N-12) [macrocyclic peptide-biotin conjugate PLB-64 (SEQ ID NO: 76)]

Continued, molecule first:

Molecule: CC[N+]1=C(/C=C/C=C/C=C2/N(CCCCCC(=O)NCCCC[C@H](NC(=O)CCOCCOCCOCCOCCOCCOCCOCCOCCOCCOCCNC(=O)CNC(C)=O)C(N)=O)c3ccc(S(=O)(=O)O)cc3C2(C)C)C(C)(C)c2cc(S(=O)(=O)[O-])ccc21 [C-M-64, 2-[(1E,3E)-5-[(2E)-1-(5-{[(5)-5-carbamoyl-5-[1-(2-acetamidoacetamido)-3,6,9,12,15,18,21,24,27,30-decaoxatritriacontan-33-amido]pentyl]carbamoyl}pentyl)-3,3-dimethyl-5-sulfo-2,3-dihydro-1H-indol-2-ylidene]penta-1,3-dien-1-yl]-1-ethyl-3,3-dimethyl-3H-indol-1-ium-5-sulfonate, reference compound]
Kd [1]: < 1 nM

Molecule: CC[C@H](C)[C@@H]1NC(=O)[C@H](Cc2ccc(C(=O)O)cc2)NC(=O)[C@H](CCC(N)=O)N(C)C(=O)[C@H](CC(=O)O)NC(=O)[C@H]([C@@H](C)CC)N(C)C(=O)[C@H](CCCCNC(C)=O)N(C)C(=O)CSCC(C(=O)NCC(=O)NCCOCCOCCOCCOCCOCCOCCOCCOCCOCCOCCC(=O)N[C@@H](CCCCNC(=O)CCCC[C@@H]2SC[C@@H]3NC(=O)N[C@@H]32)C(N)=O)N(C)C(=O)[C@H](Cc2ccc(-c3ccccc3)nc2)NC(=O)CNC(=O)[C@H](Cc2ccc3ccncc3c2)N(C)C(=O)[C@H](Cc2ccc(O)cc2)NC(=O)[C@H]([C@@H](C)CC)NC1=O (some centres unmarked) [PLB-60] ({CH2CO}-[NMeK](Ac)[NMeI]D[NMeQ][Phe(4-COOH)]IIY[NMeAla(isoquinolin-7-yl)]G[3Pal(6-Ph)][ξNMeC]G[PEG10]K(Biotin)-NH2; thioether N-12)
comparative staining of Huh-7 by flow cytometry [2]: specific binding to both glypican expressing cells and SAPE
comparative staining of HepG2 by flow cytometry [3]: specific binding to both glypican expressing cells and SAPE

Molecule: CC[C@H](C)[C@@H]1NC(=O)[C@H]([C@@H](C)OC)NC(=O)[C@H](Cc2ccc(C(=O)O)cc2)NC(=O)[C@H](CCC(N)=O)N(C)C(=O)[C@H](CC(=O)O)NC(=O)[C@H](CCC(N)=O)N(C)C(=O)[C@H](CCC(N)=O)N(C)C(=O)CSC[C@@H](C(N)=O)N(C)C(=O)[C@H](Cc2ccc(-c3cnn(C)c3)cc2)NC(=O)CNC(=O)[C@H](Cc2ccc3ccccc3c2)N(C)C(=O)[C@H](Cc2ccc(C(=O)O)cc2)NC1=O [compound 18] ({CH2CO}-[NMeQ][NMeQ]D[NMeQ][Phe(4-COOH)]T(Me)I[Phe(4-COOH)][NMe2Nal]G[Phe(4-(1-Me-pyrazol-4-yl))][NMeC]-NH2; thioether N-12)
Kd [4]: 1.8 nM

Molecule: CC[C@H](C)[C@@H]1NC(=O)[C@H]([C@@H](C)OC)NC(=O)[C@H](Cc2ccc(C(=O)O)cc2)NC(=O)[C@H](CNC(=O)N2CCN(CC(=O)O)CC2)N(C)C(=O)[C@H](CC(=O)O)NC(=O)[C@H](CCOC)N(C)C(=O)[C@H](CCCCNC(=O)N2CCN(CC(=O)O)CC2)N(C)C(=O)CSC[C@@H](C(N)=O)N(C)C(=O)[C@H](Cc2ccc(-c3ccccc3)nc2)NC(=O)CNC(=O)[C@H](Cc2ccc3ccncc3c2)N(C)C(=O)[C@H](Cc2ccc(OCCN)cc2)NC1=O [compound 55]
Kd [1]: 1.8 nM

Molecule: {CH2CO}-[MeDapCOpipzaa][MeHseMe]D[MeDapCOpipzaa][Phe(4-COOH)][TMe]I[AEF][NMe2Nal]G[3Pal(6-Ph)][NMeC]-NH2 (thioether N-12) [macrocyclic peptide of SEQ ID NO: 50]
Kd [5]: 0.3 nM

— US20260248930A1, “PEPTIDE COMPOSITIONS TARGETING GLYPICAN-3 AND USES THEREOF” (PeptiDream Inc., priority 2023, published 2026)
